Reference: ChEMBL document CHEMBL1127769, “Synthesis of new pyrazolo[4,3-e]1,2,4-triazolo[1,5-c] pyrimidine and 1,2,3-triazolo[4,5-e]1,2,4-triazolo[1,5-c] pyrimidine displaying potent and selective activity as A2a adenosine receptor antagonists” (Bioorg Med Chem Lett, 1994)

What was measured:
Adenosine receptor A2a [1] = biological target: T1, Adenosine receptor A2a (Rattus norvegicus, UniProt P30543)
Description: Binding ability of adenosine A2a receptor by using [3H]-CGS- as radioligand in rat striatal homogenate

Adenosine receptor A1 = biological target: T2, Adenosine receptor A1 (Rattus norvegicus, UniProt P25099); test: biochemical
T2 sequence (P25099 whole entry): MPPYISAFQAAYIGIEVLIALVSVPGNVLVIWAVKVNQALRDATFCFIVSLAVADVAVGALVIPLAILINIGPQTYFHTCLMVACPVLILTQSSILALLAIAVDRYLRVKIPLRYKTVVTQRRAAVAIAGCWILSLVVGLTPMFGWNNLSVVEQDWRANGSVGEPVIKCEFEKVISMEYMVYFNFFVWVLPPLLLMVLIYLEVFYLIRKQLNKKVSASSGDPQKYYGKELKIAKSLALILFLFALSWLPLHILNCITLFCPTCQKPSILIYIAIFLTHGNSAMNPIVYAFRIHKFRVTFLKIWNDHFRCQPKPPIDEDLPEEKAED
Description: Binding ability of adenosine A1 receptor by using [3H]CHA as radioligand in rat whole brain homogenate

Adenosine receptor A2a [2] = biological target: T1, Adenosine receptor A2a; test: Displacement of [3H]-CGS- from Adenosine A2a receptor of rat striatal homogenate

T1 sequence (P30543 whole entry): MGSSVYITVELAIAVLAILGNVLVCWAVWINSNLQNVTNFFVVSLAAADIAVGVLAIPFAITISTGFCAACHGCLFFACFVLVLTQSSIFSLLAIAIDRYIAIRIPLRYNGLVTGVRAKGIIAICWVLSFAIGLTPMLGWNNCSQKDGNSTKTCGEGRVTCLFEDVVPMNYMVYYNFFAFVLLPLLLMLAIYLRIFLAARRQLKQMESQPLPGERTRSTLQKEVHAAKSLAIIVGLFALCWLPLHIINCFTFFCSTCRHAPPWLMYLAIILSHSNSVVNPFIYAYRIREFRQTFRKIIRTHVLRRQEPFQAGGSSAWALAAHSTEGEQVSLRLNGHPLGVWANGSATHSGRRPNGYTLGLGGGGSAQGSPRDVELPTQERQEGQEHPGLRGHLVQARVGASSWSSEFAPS

Ki (Adenosine receptor A2a [1]) [nM] | Ki (Adenosine receptor A1) [nM] | Structure (SMILES) | Ki (Adenosine receptor A2a [2]) [nM]
8.9 | 236 | CCCCn1ncc2c1nc(N)n1nc(-c3ccco3)nc21 | –
– | – | Nc1nc2ccc(Cl)cc2c2nc(-c3ccco3)nn12 [CGS-15943] | 1.2
13.7 | 61.2 | Nc1nc2c(nnn2Cc2ccc(F)cc2)c2nc(-c3ccco3)nn12 | –
10.4 | 13.7 | Nc1nc2c(nnn2Cc2ccccc2F)c2nc(-c3ccco3)nn12 | –
– | 5.6 | CC(C)CCn1cc2c(nc(N)n3nc(-c4ccco4)nc23)n1 | –
2.4 | 30.4 | CCCCn1cc2c(nc(N)n3nc(-c4ccco4)nc23)n1 | –
12 | 116 | CC(C)CCn1ncc2c1nc(N)n1nc(-c3ccco3)nc21 | –
101 | 651 | Cn1ncc2c1nc(N)n1nc(-c3ccco3)nc21 | –
1.4 | 4.7 | Nc1nc2nn(CCc3ccccc3)cc2c2nc(-c3ccco3)nn12 | –
4.9 | 19 | Nc1nc2c(nnn2Cc2cccc(F)c2)c2nc(-c3ccco3)nn12 | –
4.6 | 6.1 | Nc1nc2c(nnn2Cc2ccccc2)c2nc(-c3ccco3)nn12 | –

Structure (SMILES) | Ki (Adenosine receptor A2a [1]) [nM] | Ki (Adenosine receptor A1) [nM] | Ki (Adenosine receptor A2a [2]) [nM]
Nc1nc2nn(Cc3ccc(F)cc3)cc2c2nc(-c3ccco3)nn12 | 1.2 | 3.3 | –
Nc1nc2nn(Cc3ccc(F)cc3)nc2c2nc(-c3ccco3)nn12 | 2.5 | 18.3 | –
Nc1nc2c(nnn2CCc2ccccc2)c2nc(-c3ccco3)nn12 | 6.9 | 42.4 | –
